{
  "source": "patent US20230225990A1",
  "about": "“DIMETHYL SULFONE FOR TREATMENT OF CHRONICALLY HEAT STRESSED POULTRY” (Evonik Operations GmbH, priority 2020, published 2023)",
  "key": {"[1]": {"system": "male broilers subjected to chronic cyclic heat stress", "test": "Animal performance (BW, ADG, ADFI, F:G, mortality, EPEF) with chronic cyclic heat stress in the finisher phase", "assay_type": "in vivo, broiler chickens (Ross 308)", "conditions": "for FIhs (percentage of total feed intake consumed during hours of heat stress): 6 h heat stress per day, d-24 till d-39; for F:G corrected: total d0-d39, corrected to final body weight of 3050 g", "description": "The experimental design consisted of one control group (T1) and two other groups receiving the control diet supplemented with increasing levels of DMS (dimethyl sulfone), specifically 0.1% DMS (T2) and 0.2% DMS (T3). Treatments were replicated in 12 pens each in a completely randomized block design. Block refers to physical allocation in the experimental facility. All the animal trial was realized in compliance with the Ethics Committee of Faculty of Veterinary Medicine (Ghent University, EC2018-71).\nThe experiment was conducted at the experimental facilities of the Department of Animal Sciences and Aquatic Ecology of Ghent University, located in Melle, Belgium. A total of 792 male broiler chickens (Ross 308, Aviagen Group) were provided by Vervaeke-Belavi hatchery (Tielt, Belgium). Larger treatment effects are expected with males, as they are more sensitive to heat stress (HS) (Cahaner and Leenstra, 1992). The experiment consisted in three rearing phases: starter (from d-0 to d-10), grower (from d-10 to d-21) and finisher (from d-21 to d-39). The one-day old chicks were weighted and equally spread among the pens according to their body weight (BW). Pens were randomly allocated to the treatment groups. The initial average animal BW was 41.3±0.31 g at the beginning of the experiment. The newly selected chicks were housed in a single climate-controlled room, which contained 36 pens of 22 animals each. […] The room was equipped with liner drinkers (two nipples per pen), and each pen had one tube-type metallic feeder. Temperature in starter and grower phase was set to decrease linearly from 34° C., at d-0 until a basal temperature of 22° C., at d-24. The light of the room was turned on 23 h in period d-0 to d-7, and then turned on at 4:00 and switched off at 22:00 during the rest of the experiment (18L:6D).\nThe finisher period started at d-21, and the chronic cyclic heat stress (HS) protocol was applied from d-24 until d-39. Starting from d-24, the temperature was increased from 22° C. to 34° C. for 6 hours per day (from 9:00 to 15:00) with relative air humidity (RH) between 52 and 58%. From 8:00 to 9:00, the temperature was increased from 22° C. to 34° C., and from 15:00 to 16:00, the temperature was decreased from 34° C. to 22° C. The rest of the day the temperature was 22° C. The room was equipped with heaters with thermostats, and air circulators to enable the desired temperature and RH to be maintained, providing sufficient ventilation and air conditions. RH was adjusted with manual spraying of water on stable walls, periodically. The temperature and the RH were recorded at 10-min intervals with a dry bulb thermo-hygrometer (Escort RH iLog, Escort Verification Technologies Inc., Buchanan, United States).\nWheat and soybean meal-based feeds were formulated to meet the nutrient requirements of broiler chickens, according to Ross308 recommendations or slightly lower to avoid excessive mortality in the finisher phase. […] The final formulation was approved by the commissioner. The test substance dimethyl sulfone was added on top at 0.1 and 0.2% in T2 and T3 in all rearing phases, respectively. Diets were processed by Research Dietary Services (RDS, Wijk bij Duurstede, The Netherlands) and delivered to Ghent University. All the diets were provided as pellets during all rearing phases. The chickens were fed ad libitum and had free access to water during the whole experiment.\nFor all performance indices, the pen is the experimental unit. Total feed intake (FI) was recorded for each rearing period. In addition, FI during HS period was recorded every day, weighing the feeders before (at 8:00) and after (at 16:00) HS every day. That allows the calculation of the relative FI during period with HS relative to the total FI for each day during HS (d-24 to d-39). The total body weight (BW) of each pen was recorded at d-0, d-10, d-21 and d-39, and divided by the number of chickens in the pen at that day to have the average BW for each pen. […]"}, "[2]": {"system": "chronically heat stressed poultry", "test": "Litter moisture", "assay_type": "in vivo", "conditions": "control diet+0.05 wt.-% DMS; d-42", "description": "For this purpose, two treatments (T1: control diet, and T2: control diet+0.05 wt.-% DMS) were done with 13 replicate pens each and 10 birds per pen. Collection of litter was done at days 28 and 42 to determine litter moisture. The sampling of the litter was done in five different points in each pen (each corner and the centre of each pen) and then homogenized to compose the representative sample of the pen. […] Calculating was done according to the formula: […]"}, "[3]": {"conditions": "0.1% DMS in diet (T2), d-24 to d-39, excluding pen 24"}, "[4]": {"conditions": "0.1% DMS in diet (T2), finisher d21-d39, heat stress d-24 till d-39"}, "[5]": {"conditions": "0.1% DMS in diet (T2), grower d10-d21"}, "[6]": {"conditions": "0.1% DMS in diet (T2), starter d0-d10"}, "[7]": {"conditions": "0.1% DMS in diet (T2), total d0-d39"}, "[8]": {"conditions": "0.2% DMS in diet (T3), d-24 to d-39, excluding pen 24"}, "[9]": {"conditions": "0.2% DMS in diet (T3), finisher d21-d39, heat stress d-24 till d-39"}, "[10]": {"conditions": "0.2% DMS in diet (T3), grower d10-d21"}, "[11]": {"conditions": "0.2% DMS in diet (T3), starter d0-d10"}, "[12]": {"conditions": "0.2% DMS in diet (T3), total d0-d39"}},
  "note": "Marks after values point to notes of the source that are not given here.",
  "data": [
    {"compound": "CS(C)(=O)=O", "note": "[DMS, dimethyl sulfone]", "values": [
      {"measurement": "FIhs (percentage of total feed intake consumed during hours of heat stress)", "setting": "[1]; 0.1% DMS in diet (T2)", "value": 27.9, "unit": "%"},
      {"measurement": "Cases of mortality", "setting": "[1]; [3]", "value": 10},
      {"measurement": "Cases of mortality+culling", "setting": "[1]; [3]", "value": 12},
      {"measurement": "Cases of mortality+culling", "setting": "[1]; 0.1% DMS in diet (T2), d-24 to d-39, pen 24 included", "value": 17},
      {"measurement": "ADFI", "setting": "[1]; [4]", "value": 179, "unit": "g/day"},
      {"measurement": "ADG", "setting": "[1]; [4]", "value": 106, "unit": "g/day"},
      {"measurement": "F:G", "setting": "[1]; [4]", "value": 1.71},
      {"measurement": "Final BW", "setting": "[1]; [4]", "value": 3100, "unit": "g"},
      {"measurement": "Mortality", "setting": "[1]; [4]", "value": 4.7, "unit": "%"},
      {"measurement": "Mortality + culling", "setting": "[1]; [4]", "value": 6.0, "unit": "%"},
      {"measurement": "ADFI", "setting": "[1]; [5]", "value": 103, "unit": "g/day"},
      {"measurement": "ADG", "setting": "[1]; [5]", "value": "75.5^a g/d"},
      {"measurement": "ADG higher as compared to control", "setting": "[1]; [5]", "value": 2.6, "unit": "%"},
      {"measurement": "F:G", "setting": "[1]; [5]", "value": "1.36^b"},
      {"measurement": "F:G reduced as compared to control", "setting": "[1]; [5]", "value": 6, "unit": "points"},
      {"measurement": "Final BW", "setting": "[1]; [5]", "value": 1189, "unit": "g"},
      {"measurement": "Mortality", "setting": "[1]; [5]", "value": 1.1, "unit": "%"},
      {"measurement": "Mortality + culling", "setting": "[1]; [5]", "value": 1.1, "unit": "%"},
      {"measurement": "ADFI", "setting": "[1]; [6]", "value": 32.5, "unit": "g/day"},
      {"measurement": "ADG", "setting": "[1]; [6]", "value": 31.7, "unit": "g/day"},
      {"measurement": "F:G", "setting": "[1]; [6]", "value": 1.03},
      {"measurement": "Final BW", "setting": "[1]; [6]", "value": 359, "unit": "g"},
      {"measurement": "Mortality", "setting": "[1]; [6]", "value": 0.0, "unit": "%"},
      {"measurement": "Mortality + culling", "setting": "[1]; [6]", "value": 0.0, "unit": "%"},
      {"measurement": "ADFI", "setting": "[1]; [7]", "value": 116, "unit": "g/day"},
      {"measurement": "ADG", "setting": "[1]; [7]", "value": 78.4, "unit": "g/day"},
      {"measurement": "EPEF (European production efficiency factor)", "setting": "[1]; [7]", "value": 488},
      {"measurement": "F:G", "setting": "[1]; [7]", "value": 1.53},
      {"measurement": "Mortality", "setting": "[1]; [7]", "value": 5.9, "unit": "%"},
      {"measurement": "Mortality + culling", "setting": "[1]; [7]", "value": 7.3, "unit": "%"},
      {"measurement": "F:G corrected", "setting": "[1]; 0.1% DMS in diet (T2)", "value": 1.54},
      {"measurement": "FIhs (percentage of total feed intake consumed during hours of heat stress)", "setting": "[1]; 0.2% DMS in diet (T3)", "value": 27.9, "unit": "%"},
      {"measurement": "Cases of mortality", "setting": "[1]; [8]", "value": 8},
      {"measurement": "Cases of mortality+culling", "setting": "[1]; [8]", "value": 8},
      {"measurement": "Cases of mortality+culling", "setting": "[1]; 0.2% DMS in diet (T3), d-24 to d-39, pen 24 included", "value": 8},
      {"measurement": "ADFI", "setting": "[1]; [9]", "value": 178, "unit": "g/day"},
      {"measurement": "ADG", "setting": "[1]; [9]", "value": 104, "unit": "g/day"},
      {"measurement": "F:G", "setting": "[1]; [9]", "value": 1.72},
      {"measurement": "Final BW", "setting": "[1]; [9]", "value": 3066, "unit": "g"},
      {"measurement": "Mortality", "setting": "[1]; [9]", "value": 3.1, "unit": "%"},
      {"measurement": "Mortality + culling", "setting": "[1]; [9]", "value": 3.1, "unit": "%"},
      {"measurement": "ADFI", "setting": "[1]; [10]", "value": 102, "unit": "g/day"},
      {"measurement": "ADG", "setting": "[1]; [10]", "value": "76.1^a g/d"},
      {"measurement": "ADG higher as compared to control", "setting": "[1]; [10]", "value": 3.4, "unit": "%"},
      {"measurement": "F:G", "setting": "[1]; [10]", "value": "1.35^b"},
      {"measurement": "F:G reduced as compared to control", "setting": "[1]; [10]", "value": 7, "unit": "points"},
      {"measurement": "Final BW", "setting": "[1]; [10]", "value": 1194, "unit": "g"},
      {"measurement": "Mortality", "setting": "[1]; [10]", "value": 0.4, "unit": "%"},
      {"measurement": "Mortality + culling", "setting": "[1]; [10]", "value": 0.8, "unit": "%"},
      {"measurement": "ADFI", "setting": "[1]; [11]", "value": 32.3, "unit": "g/day"},
      {"measurement": "ADG", "setting": "[1]; [11]", "value": 31.6, "unit": "g/day"},
      {"measurement": "F:G", "setting": "[1]; [11]", "value": 1.03},
      {"measurement": "Final BW", "setting": "[1]; [11]", "value": 357, "unit": "g"},
      {"measurement": "Mortality", "setting": "[1]; [11]", "value": 0.8, "unit": "%"},
      {"measurement": "Mortality + culling", "setting": "[1]; [11]", "value": 0.8, "unit": "%"},
      {"measurement": "ADFI", "setting": "[1]; [12]", "value": 117, "unit": "g/day"},
      {"measurement": "ADG", "setting": "[1]; [12]", "value": 77.6, "unit": "g/day"},
      {"measurement": "EPEF (European production efficiency factor)", "setting": "[1]; [12]", "value": 491},
      {"measurement": "F:G", "setting": "[1]; [12]", "value": 1.54},
      {"measurement": "Mortality", "setting": "[1]; [12]", "value": 4.2, "unit": "%"},
      {"measurement": "Mortality + culling", "setting": "[1]; [12]", "value": 4.5, "unit": "%"},
      {"measurement": "F:G corrected", "setting": "[1]; 0.2% DMS in diet (T3)", "value": 1.54},
      {"measurement": "Moisture content in the litter", "setting": "[2]", "value": "clear reduction"}
    ]}
  ]
}
